In patent US7842685B2, “S1P1 receptor agonists and use thereof” (Amgen Inc., priority 2008, dated 2010):
Structures can show the parent of a compound that is named as a salt.

Biological target: T1, hS1P1 receptor (Homo sapiens, UniProt P21453)
T1 construct: host or cells: U2OS
Test: hS1P1 receptor internalization assay (cell imaging-based, hS1P1-eGFP U2OS cells)
Conditions: U2OS cell line expressing hS1P1-eGFP, compounds incubated at 37° C. for one hour; for Emax: 1 h, efficacy (Max), read-out: hS1P1 Receptor Internalization (biolimaging) Max (%); for EC50: GFP-containing endosomes per cell (ArrayScan), read-out: hS1P1 Receptor Internalization (bioimaging) EC50 IP
Experimental: The activity of compounds of the invention was determined by a cell imaging-based assay measuring the degree of hS1P1 receptor internalization and a Ca^2+ mobilization assay measuring the level of S1P receptor activation. The receptor internalization assay was employed to determine the potency and efficacy of compounds on hS1P1 receptor, while Ca^2+ mobilization assay was used to determine selectivity among different S1P receptors and activity on S1P receptors from species such as rat, dog, and cyno. The hS1P1 receptor internalization assay was performed using a U2OS cell line expressing hS1P1-eGFP chimeric protein (Thermo Scientific, Soeborg, Denmark). Upon compound treatment, the hS1P1 receptor was internalized in cytoplasma and formed GFP-containing-endosomes. This event was detected by an automated microscope, ArrayScan (Thermo Scientific Cellomics, Pittsburg), and the degree of receptor internalization is quantitated by counting green fluorescent GFP-containing endosomes per cell. In this assay, hS1P1-eGFP expressing U2OS cells were starved in serum free media for two hours prior to compound treatment. Then compounds were incubated with the starved cells at 37° C. for one hour. Subsequently, compound-treated cells were fixed using 4% formaldehyde, and the nuclei were stained using Hoechst. Then the cells were imaged in ArrayScan. The potency and efficacy of the compounds were determined by plotting the number of green fluorescent GFP-containing endosomes per cell against corresponding compound concentration.

T1 sequence (P21453 whole entry): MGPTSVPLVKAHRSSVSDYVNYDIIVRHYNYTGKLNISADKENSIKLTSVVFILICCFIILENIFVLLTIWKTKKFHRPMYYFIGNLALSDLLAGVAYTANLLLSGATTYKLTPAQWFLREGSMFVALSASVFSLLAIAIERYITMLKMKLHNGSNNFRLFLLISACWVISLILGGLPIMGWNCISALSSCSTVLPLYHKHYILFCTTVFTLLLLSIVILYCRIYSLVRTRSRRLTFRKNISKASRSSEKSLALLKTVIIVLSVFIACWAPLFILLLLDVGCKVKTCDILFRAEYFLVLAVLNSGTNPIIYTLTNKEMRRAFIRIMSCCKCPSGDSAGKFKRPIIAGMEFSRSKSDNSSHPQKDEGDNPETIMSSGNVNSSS

Row | SMILES | Emax | EC50
1 | O=C(O)C1(C(=O)O)CC(Cc2ccc(-c3nc4ccc(C5(c6ccccc6)CC5)nc4s3)c(F)c2)C1 [Example 30, 3-(3-fluoro-4-(5-(1-phenylcyclopropyl)thiazolo[5,4-b]pyridine-2-yl)benzyl)cyclobutane-1,1-dicarboxylic acid] | 79% | 2910 nM
2 | O=C(O)CCc1ccc(-c2nc3ccc(C4(c5ccccc5)CC4)nc3s2)c(F)c1 [Example 27, 3-(3-fluoro-4-(5-(1-phenylcyclopropyl)thiazolo[5,4-b]pyridine-2-yl)-phenyl)propanoic acid] | 81% | 5880 nM
3 | O=C(O)C1CN(Cc2ccc(-c3nc4ccc(C5(c6ccccc6)CC5)cc4s3)c(F)c2)C1 [Example 10, 1-((3-fluoro-4-(6-(1-phenylcyclopropyl)benzo[d]thiazol-2-yl)phenyl)-methyl)azetidine-3-carboxylic acid hydrochloride] | 97% | 42 nM
4 | Fc1cc(CCNCc2ccccc2)ccc1-c1nc2ccc(C3(c4ccccc4)CC3)nc2s1 [Example 60, N-benzyl-2-(3-fluoro-4-(5-(1-phenylcyclopropyl)[1,3]thiazolo[5,4-b]pyridin-2-yl)phenyl)ethanamine] | 162% | 721 nM
5 | OC1CN(Cc2ccc(-c3nc4ccc(C5(c6ccccc6)CC5)nc4s3)c(F)c2)C1 [Example 35, 1-(3-fluoro-4-(5-(1-phenylcyclopropyl)thiazolo[5,4-b]pyridin-2-yl)benzyl)-azetidin-3-ol] | 90% | 18.7 nM
6 | O=C(O)C1CN(Cc2ccc(-c3nc4ccc(C5(c6ccc(O)cc6)CC5)nc4s3)c(F)c2)C1 [Example 39, 1-(3-fluoro-4-(5-(1-(4-hydroxyphenyl)cyclopropyl)thiazolo[5,4-b]pyridine-2-yl)benzyl)azetidine-3-carboxylic acid] | 83% | 21.2 nM
7 | O=C(O)COCc1ccc(-c2nc3ccc(C4(c5ccccc5)CC4)nc3s2)c(F)c1 [Example 85, 2-(3-fluoro-4-(5-(1-phenylcyclopropyl)thiazolo[5,4-b]pyridin-2-yl)benzyloxy)acetic acid] | 88% | 1270 nM
8 | O=C(O)C1CN(Cc2ccc(-c3nc4ccc(C5(c6ccccc6)CC5)nc4s3)c(F)c2)C1 [Example 1, 1-((3-fluoro-4-(5-(1-phenylcyclopropyl)thiazolo[5,4-b]pyridin-2-yl)-phenyl)methyl)azetidine-3-carboxylic acid] | 98% | 2.5 nM
9 | O=C(O)C1CN(Cc2ccc(-c3nc4ccc(C5(c6ccccn6)CC5)cc4s3)c(F)c2)C1 [Example 62, 1-((3-fluoro-4-(6-(1-(pyridine-2-yl)cyclopropyl)benzo[d]thiazol-2-yl)-phenyl)methyl)azetidine-3-carboxylic acid] | 98% | 3710 nM
10 | CC(C)(N)c1ccc(-c2nc3ccc(C4(c5ccccc5)CC4)nc3s2)c(F)c1 [Example 22, 2-(3-fluoro-4-(5-(1-phenylcyclopropyl)thiazolo[5,4-b]pyridine-2-yl)phenyl)-propan-2-amine] | 157% | 192 nM
11 | O=C(O)C1CN(Cc2ccc(-c3nc4cnc(C5(c6ccccc6)CC5)cc4s3)c(F)c2)C1 [Example 45, 1-(3-fluoro-4-(6-(1-phenylcyclopropyl)thiazolo[4,5-c]pyridine-2-yl)benzyl)azetidine-3-carboxylic acid trifluoroacetic acid salt] | 103% | 99.7 nM
12 | Cc1cc(-c2nc3ccc(C4(c5ccccc5)CC4)nc3s2)cc(C)c1OC[C@H](O)CO [Example 67, (R)-3-(2,6-dimethyl-4-(5-(1-phenylcyclopropyl)thiazolo[5,4-b]pyridin-2-yl)phenoxy)propane-1,2-diol] | 125% | 70.4 nM
13 | O=C(O)[C@@H]1C[C@@H](Oc2ccc(-c3nc4ccc(C5(c6ccccc6)CC5)nc4s3)cc2)CN1 [Example 72, (2S,4R)-4-(4-(5-(1-phenylcyclopropyl)thiazolo[5,4-b]pyridin-2-yl)phenoxy)pyrrolidine-2-carboxylic acid] | 133% | 45.1 nM
14 | O=C(O)C1(F)CN(Cc2ccc(-c3nc4ccc(C5(c6ccccc6)CC5)nc4s3)c(F)c2)C1 [Example 4, 3-fluoro-1-((3-fluoro-4-(5-(1-phenylcyclopropyl)thiazolo[5,4-b]pyridine-2-yl)phenyl)methyl)azetidine-3-carboxylic acid hydrochloride] | 121% | 1.2 nM
15 | Nc1cc(CN2CC(C(=O)O)C2)ccc1-c1nc2ccc(C3(c4ccccc4)CC3)nc2s1 [Example 46, 1-(3-amino-4-(5-(1-phenylcyclopropyl)thiazolo[5,4-b]pyridin-2-yl)benzyl)azetidine-3-carboxylic acid] | 99% | 4.8 nM
16 | OCC(CO)Cc1ccc(-c2nc3ccc(C4(c5ccccc5)CC4)nc3s2)c(F)c1 [Example 29, 2-(3-fluoro-4-(5-(1-phenylcyclopropyl)thiazolo[5,4-b]pyridine-2-yl)benzyl)propane-1,3-diol] | 91% | 334 nM
17 | O=C(O)CN1CCc2cc(-c3nc4ccc(C5(c6ccccc6)CC5)nc4s3)ccc2C1 [Example 82, 2-(6-(5-(1-phenylcyclopropyl)thiazolo[5,4-b]pyridin-2-yl)-3,4-dihydroisoquinolin-2(1H)-yl)acetic acid] | 106% | 46.1 nM
18 | O=C(O)CC1CN(Cc2ccc(-c3nc4ccc(C5(c6ccccc6)CC5)nc4s3)c(F)c2)C1 [Example 79, 2-(1-(3-fluoro-4-(5-(1-phenylcyclopropyl)thiazolo[5,4-b]pyridin-2-yl)-benzyl)azetidin-3-yl)acetic acid] | 150% | 38.4 nM
19 | O=C(O)CCNCc1ccc(-c2nc3ccc(C4(c5ccccc5)CC4)nc3s2)c(F)c1 [Example 12, 3-((3-fluoro-4-(5-(1-phenylcyclopropyl)thiazolo[5,4-b]pyridine-2-yl)-phenyl)methylamino)propanoic acid hydrochloride] | 101% | 2 nM
20 | O=C(O)C1CN(Cc2ccc(-c3nc4ccc(C5(c6ccccc6F)CC5)nc4s3)c(F)c2)C1 [Example 38, 1-(3-fluoro-4-(5-(1-(2-fluorophenyl)cyclopropyl)thiazolo[5,4-b]pyridine-2-yl)-benzyl)azetidine-3-carboxylic acid] | 111% | 3.7 nM

Results, then the molecule that gave them:

Row | Emax | EC50 | SMILES
21 | 93% | 44.9 nM | O=C(O)c1cnn(Cc2ccc(-c3nc4ccc(C5(c6ccccc6)CC5)nc4s3)c(F)c2)c1 [Example 98, 1-(3-fluoro-4-(5-(1-phenylcyclopropyl)thiazolo[5,4-b]pyridin-2-yl)benzyl)-1H-pyrazole-4-carboxylic acid hydrochloride]
22 | 131% | 946 nM | O=C(O)CCS(=O)(=O)Nc1ccc(-c2nc3ccc(C4(c5ccccc5)CC4)nc3s2)c(F)c1 [Example 124, 3-((3-fluoro-4-(5-(1-phenylcyclopropyl)[1,3]thiazolo[5,4-b]pyridin-2-yl)phenyl)sulfamoyl)propanoic acid]
23 | 155% | 184 nM | CC(=O)NCCc1ccc(-c2nc3ccc(C4(c5ccccc5)CC4)nc3s2)c(F)c1 [Example 150, N-(2-(3-fluoro-4-(5-(1-phenylcyclopropyl)[1,3]thiazolo[5,4-b]pyridin-2-yl)phenyl)ethyl)acetamide]
24 | 63% | 3330 nM | O=C(c1ccc(-c2nc3ccc(C4(c5ccccc5)CC4)nc3s2)c(F)c1)N1CCC1 [Example 105, 2-(4-(1-azetidinylcarbonyl)-2-fluorophenyl)-5-(1-phenylcyclopropyl)-[1,3]thiazolo[5,4-b]pyridine]
25 | 133% | 2.2 nM | O=C(O)C[C@H](O)C(=O)Nc1ccc(-c2nc3ccc(C4(c5ccccc5)CC4)nc3s2)c(F)c1 [Example 133, (3S)-4-(3-fluoro-4-(5-(1-phenylcyclopropyl)thiazolo[5,4-b]pyridin-2-yl)phenylamino)-3-hydroxy-4-oxobutanoic acid]
26 | 100% | 0.6 nM | N[C@H](CC(=O)O)C(=O)Nc1ccc(-c2nc3ccc(C4(c5ccccc5)CC4)nc3s2)c(F)c1 [Example 126, N-(3-fluoro-4-(5-(1-phenylcyclopropyl)[1,3]thiazolo[5,4-b]pyridin-2-yl)phenyl)-D-alpha-asparagine TFA salt]
27 | 111% | 298 nM | O=C(Nc1ccc(-c2nc3ccc(C4(c5ccccc5)CC4)nc3s2)c(F)c1)C(F)(F)F [Example 118, 2,2,2-trifluoro-N-(3-fluoro-4-(5-(1-phenylcyclopropyl)[1,3]thiazolo[5,4-b]pyridin-2-yl)phenyl)acetamide]
28 | 41% | 2350 nM | CN(CCO)C(=O)c1ccc(-c2nc3ccc(C4(c5ccccc5)CC4)nc3s2)c(F)c1 [Example 109, 3-fluoro-N-(2-hydroxyethyl)-N-methyl-4-(5-(1-phenylcyclopropyl)-[1,3]thiazolo[5,4-b]pyridin-2-yl)benzamide]
29 | 125% | 777 nM | CNc1ccc(-c2nc3ccc(C4(c5ccccc5)CC4)nc3s2)c(F)c1 [Example 121, 3-fluoro-N-methyl-4-(5-(1-phenylcyclopropyl)[1,3]thiazolo[5,4-b]pyridin-2-yl)aniline]
